Experimental data published in patent publication US20090068098A1, “ANTIBODIES AND RELATED MOLECULES THAT BIND TO 58P1D12 PROTEINS” (priority 2007, published 2009).

Test system: LAPC9-AI androgen-independent prostate tumor xenografts
Assay: Established LAPC9-AI prostate tumor xenografts in tibiae, monotherapy and combination with Carboplatin
Type: in vivo, mouse
Settings: day 33, vs control antibody; MAb 2 mg loading then 1.0 mg i.p. twice weekly, 7 doses; Carboplatin 40 mg/kg i.v. days 7, 11, 15, 19, 22, 26
Protocol: FIG. 16. […] The tumors were allowed to establish for 7 days, at which time the animals were randomized and assigned to four different groups (n=10 in each group) as indicated in the graph. […] Carboplatin (40 mg/kg) was administered to the mice intravenously (i.v.) on days 7, 11, 15, 19, 22 and 26. On day 33 all mice were sacrificed and the tumors were excised and weighed on an electronic balance.
The tumors were allowed to establish for 7 days, at which time the animals were randomized and assigned to four different groups (n=10 in each group). […] Carboplatin (40 mg/kg) was administered to the mice intravenously (i.v.) on days 7, 11, 15, 19, 22 and 26. On day 33 all mice were sacrificed and the tumors were excised and weighed on an electronic balance.

Q: N.N.O=C([O-])C1(C(=O)[O-])CCC1.[Pt+2] [Carboplatin] was tested. Which “inhibition of tumor growth (tumor weight)” value did it give?
A: 87%
